The results in this text go back to patent US6905852B1, “Herbicide-resistant protoporphyrinogen oxidase isolated from Nicotiana tabacum” (Nihon Nohyaku Co., Ltd., priority 1997, dated 2005).

The target in experiment [1] is T1, E. coli SASX38 strain having pBAtPX-C with Arabidopsis thaliana wild type protoporphyrinogen oxidase gene (Arabidopsis thaliana, UniProt P55826).
T1 construct: expressed in transfected cells; host or cells: E. coli SASX38 (hemG-deficient) carrying pBAtPX-C (pBluescript SK(-))
T1 sequence (P55826 35-537): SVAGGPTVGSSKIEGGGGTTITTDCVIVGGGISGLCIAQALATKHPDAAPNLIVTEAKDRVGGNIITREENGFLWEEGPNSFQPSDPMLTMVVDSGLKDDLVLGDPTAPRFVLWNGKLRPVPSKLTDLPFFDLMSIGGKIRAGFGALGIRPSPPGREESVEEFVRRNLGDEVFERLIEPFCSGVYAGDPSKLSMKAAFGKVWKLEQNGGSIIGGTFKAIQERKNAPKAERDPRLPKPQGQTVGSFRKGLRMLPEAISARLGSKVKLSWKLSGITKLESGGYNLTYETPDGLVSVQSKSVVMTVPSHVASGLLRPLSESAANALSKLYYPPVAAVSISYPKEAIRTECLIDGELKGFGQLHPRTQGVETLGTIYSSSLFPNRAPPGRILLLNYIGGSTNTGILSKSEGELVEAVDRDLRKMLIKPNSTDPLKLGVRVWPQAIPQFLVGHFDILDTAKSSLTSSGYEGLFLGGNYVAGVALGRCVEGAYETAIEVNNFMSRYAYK
In words: Growth inhibition of E. coli SASX38 (liquid culture with shaking). It is filed as cell-based. Conditions: Arabidopsis thaliana wild type (pBAtPX-C); read-out: IC50, growth of E. coli. Here is the method:
(§1) The E. coli SASX38 strain containing either of the above-described two kinds of plasmid was cultured with shaking in LB liquid medium containing 50 μg/ml of ampicillin at 28° C. for overnight.

The target of experiment [2] is T2, E. coli SASX38 strain having pCR-RC with tobacco resistant type protoporphyrinogen oxidase gene (Nicotiana tabacum, UniProt O24163, A174P/A191P/A231V/T382S).
T2 construct: expressed in transfected cells; host or cells: E. coli SASX38 (hemG-deficient) carrying pCR-RC
T2 sequence (O24163 whole entry A174P/A191P/A231V/T382S): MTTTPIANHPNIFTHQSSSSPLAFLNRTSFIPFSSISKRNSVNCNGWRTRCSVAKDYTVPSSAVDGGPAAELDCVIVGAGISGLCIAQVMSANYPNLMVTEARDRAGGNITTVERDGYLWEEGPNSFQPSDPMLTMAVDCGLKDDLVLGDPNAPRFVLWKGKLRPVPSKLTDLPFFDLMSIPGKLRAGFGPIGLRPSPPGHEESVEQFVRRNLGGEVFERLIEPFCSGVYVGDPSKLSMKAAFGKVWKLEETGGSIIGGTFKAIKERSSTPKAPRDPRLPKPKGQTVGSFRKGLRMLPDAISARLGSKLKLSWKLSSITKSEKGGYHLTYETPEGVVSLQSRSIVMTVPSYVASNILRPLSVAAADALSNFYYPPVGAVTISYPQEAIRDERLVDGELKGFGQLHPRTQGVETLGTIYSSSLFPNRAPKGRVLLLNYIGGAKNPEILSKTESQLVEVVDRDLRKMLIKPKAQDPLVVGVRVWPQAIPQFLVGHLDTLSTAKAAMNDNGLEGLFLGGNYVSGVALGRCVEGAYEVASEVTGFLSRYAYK
The experiment is described as above. Format: cell-based. Here is the method:
as §1

Experiment [3] has as its target T3, E. coli SASX38 strain having pBAtPX-RC with Arabidopsis thaliana resistant type protoporphyrinogen oxidase cDNA (Arabidopsis thaliana, UniProt P55826, A220V).
T3 construct: expressed in transfected cells; host or cells: E. coli SASX38 (hemG-deficient) carrying pBAtPX-RC (pBluescript SK(-))
Described as above. It is filed as cell-based. Here is the method:
as §1

For experiment [4], the system named is E. coli SASX38 strain having pCR-RC with tobacco resistant type protoporphyrinogen oxidase gene. The experiment is described as above. It is filed as cell-based, Nicotiana tabacum. The settings on record: tobacco. Here is the method:
as §1

The target of experiment [5] is T4, E. coli SASX38 strain having pCR-HC with tobacco wild type protoporphyrinogen oxidase cDNA (Nicotiana tabacum, UniProt O24163).
T4 construct: expressed in transfected cells; host or cells: E. coli SASX38 (hemG-deficient) carrying pCR-HC
T4 sequence (O24163 51-548): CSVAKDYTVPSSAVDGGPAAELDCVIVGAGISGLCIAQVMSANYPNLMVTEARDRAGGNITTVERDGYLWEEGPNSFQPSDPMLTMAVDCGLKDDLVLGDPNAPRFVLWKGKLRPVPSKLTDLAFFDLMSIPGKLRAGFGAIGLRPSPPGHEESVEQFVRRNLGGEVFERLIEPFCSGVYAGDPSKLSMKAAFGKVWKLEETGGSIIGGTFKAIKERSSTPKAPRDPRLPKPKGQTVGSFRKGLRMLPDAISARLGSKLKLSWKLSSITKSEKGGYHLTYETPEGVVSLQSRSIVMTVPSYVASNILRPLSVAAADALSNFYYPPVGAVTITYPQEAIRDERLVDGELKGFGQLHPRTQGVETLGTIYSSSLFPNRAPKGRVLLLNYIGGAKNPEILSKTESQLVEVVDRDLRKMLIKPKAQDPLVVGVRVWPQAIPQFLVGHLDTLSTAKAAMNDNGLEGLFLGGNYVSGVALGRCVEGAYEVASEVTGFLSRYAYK
Described as above. Format: cell-based. Conditions: E. coli containing pCR-HC; read-out: IC50, growth of E. coli inhibited by 50%. How it is done: as §1

The test system of experiment [6] is transformed tobacco plant, Arabidopsis thaliana wild type (pBI-AtPX-HC). In words: Leaf disk method, bleaching. Format: cell-based, N. Tabacum var. SR1. How it is done: (§2) The A. tumefacience having the binary vector which had been stored at −80° C. was cultured with shaking at 27° C. for 24 hours in 523 liquid medium (1% sucrose, 0.8% Bacto-tryptone, 0.4% Bacto-yeast extract, 0.2% K2HPO4, 0.03% MgSO4.7H2O) containing kanamycin. A disk (9 mm diameter) of a tobacco (N. Tabacum var. SR1) leaf which had been surface sterilized was immersed for one minute into the culture of the A. tumefacience, and then the culture liquid attached thereon was removed with a sterilized paper towel. The leaf disk was transferred into MS agar medium containing 0.6% agar in which 2 ppm NAA and 0.2 ppm BA were added, with the reverse side of leaf being made upside, and incubated at 25° C. for 48 hours. The leaf disk was transferred into MS liquid medium containing 500 ppm carbenicillin, 200 ppm claforan, 2 ppm NAA and 0.2 ppm BA and cultured with shaking at 27° C. for 48-72 hours to remove A. tumefacience. The leaf disk was transferred into MS liquid medium containing 0.6% agar, 100 ppm of carbenycillin, 200 ppm of claforan and 150 ppm of kanamycin, 2 ppm NAA and 0.2 ppm BA and incubated at 27° C. for 2-3 weeks and formation of shoot was induced. The shoot was transferred into medium for root development (½ MS, 0.02 ppm IBA, 1.5% sucrose, 0.2% gellan gum) and development of root was introduced. The young plant thus obtained was transferred into culture soil, and was grown in a green house.
(§3) From the transformed plant with which the confirmation of introduction of gene was finished, and non-transformed plant used as a control, a leaf almost the same position of the leaf was picked and 9 mm diameter leaf disks were prepared, and floated on a dish in which 0, 125, 250, 1,250, 2,500, 5,000, 12,500 nM of compound A aqueous solution were contained. After incubation at 27° C. for one week under continuous strong light, the bleaching of the leaf disks was observed, and the permissive concentration to compound A was calculated. As a result (Table 7), in case that the tolerant type of protoporphirinogen oxidase cDNA from tobacco was introduced by pBI-NtPX-RC, more than 100 times of tolerance was observed comparing to the control non-transformed plant. However, in case that rsistant type cDNA from Arabidopsis thaliana was introduced by pBI-AtPX-RC, 4 times of resistance was observed comparing to the control, and in case that the wild type cDNA was introduced, high resistance was not observed in each case.

Experiment [7] has as its system transformed tobacco plant, Tobacco resistant type (pBI-NtPX-RC). Put plainly: Leaf disk method, bleaching. Format: cell-based, N. Tabacum var. SR1. How it is done:
as §2, §3

For experiment [8], the system named is transformed tobacco plant, Tobacco wild type (pBI-NtPX-HC). Put plainly: Leaf disk method, bleaching. Format: cell-based, N. Tabacum var. SR1. Here is the method:
as §2, §3

Some results are limits rather than exact numbers.

T3 sequence (P55826 35-537 A220V): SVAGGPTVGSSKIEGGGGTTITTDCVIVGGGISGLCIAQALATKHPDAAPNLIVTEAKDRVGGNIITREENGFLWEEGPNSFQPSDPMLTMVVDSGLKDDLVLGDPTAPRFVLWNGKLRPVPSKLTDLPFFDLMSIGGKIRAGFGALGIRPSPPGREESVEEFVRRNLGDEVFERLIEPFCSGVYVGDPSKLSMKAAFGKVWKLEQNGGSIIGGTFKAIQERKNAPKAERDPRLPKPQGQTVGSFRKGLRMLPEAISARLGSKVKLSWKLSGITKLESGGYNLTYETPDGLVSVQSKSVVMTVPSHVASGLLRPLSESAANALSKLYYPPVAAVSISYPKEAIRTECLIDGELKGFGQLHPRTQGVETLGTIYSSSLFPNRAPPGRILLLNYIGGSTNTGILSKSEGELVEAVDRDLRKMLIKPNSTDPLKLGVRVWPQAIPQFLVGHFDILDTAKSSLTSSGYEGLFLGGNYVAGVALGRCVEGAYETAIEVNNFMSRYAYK

Consider `CCOC(=O)COc1cc(-c2nn(C)c(OC(F)F)c2Cl)c(F)cc1Cl` [Compound A, ethyl 2-chloro-5-(4-chloro-5-difluoromethoxy-1-methyl-1H-pyrazol-3-yl)-4-fluorophenoxyacetate], for which the IC50 in experiment [1] was roughly 5 nM; in experiment [2], no less than 10000 nM; in experiment [3], 1500 nM; in experiment [5] it was roughly 2.5 nM. Moreover, in experiment [3] (Arabidopsis thaliana), the “R/S ratio (IC50 value of the resistant type/IC50 value of the wild type)” value is listed as “about 300”. In experiment [4], the “R/S ratio (IC50 value of a resistant type/IC50 value in a wild type)” value is reported as “over 4,000”. For the same compound, the results for the “Permission conc. to compound A” value in experiment [6] (Arabidopsis thaliana Wild type (pBI-AtPX-HC)), in experiment [7] and in experiment [8] were 250 nM, >12,500 nM and 500 nM, respectively. Moreover, the Resistance was found to be 2 X in experiment [6] (Arabidopsis thaliana Wild type, vs non-transformed) and 4 X in experiment [8] (vs non-transformed).

What is called IC50 is the point on the concentration scale where inhibition reaches its midpoint.
